Data published in patent US12673120B2, “Fluorescently-traceable amino acid derivative and preparation methods and use thereof” (priority 2020, dated 2026).
Like-named read-outs stand apart in the source and are kept apart here. Blank lines part the entries; values can stand above or below the compound they belong to.

Assays:
[1] = tested on: S180 (mouse ascites tumor cells); experiment: In vitro anti-tumor cell proliferation activity (MTT method), S180; type: cell-based; conditions: read-out: IC50 values of in vitro anti-cell proliferation activity
Method: (§2) Tested cell lines S180 (mouse ascites tumor cells), LLC (mouse lung cancer cells), A549 (human non-small cell lung cancer cells), HCT116 (human colon cancer cells), U2Os (human osteosarcoma cells), and MCF-7 (human breast cancer cells) each were purchased from Nanjing KeyGen Biotech.
(§3) When preparing a test sample, the test compound was prepared into a sample solution with a concentration of 500 μM (with a final concentration 100 μM) by a PBS buffer containing 0.5% DMSO, which was used for preliminary screening of an anti-cell proliferation experiment in vitro.
(§4) Positive control group: doxorubicin, prepared to a required concentration with PBS buffer containing 0.5% DMSO; negative control group: a PBS buffer containing 0.5% DMSO; blank group: a PBS buffer containing 0.01% DMSO.

[2] = tested on: LLC (mouse lung cancer cells); experiment: In vitro anti-tumor cell proliferation activity (MTT method), LLC; type: cell-based; conditions: 48 h, read-out: IC50 values of in vitro anti-cell proliferation activity
Method: as §2, §3, §4

[3] = tested on: A549 (human non-small cell lung cancer cells); experiment: In vitro anti-tumor cell proliferation activity (MTT method), A549; type: cell-based; conditions: read-out: IC50 values of in vitro anti-cell proliferation activity
Method: as §2, §3, §4

[4] = tested on: HCT116 (human colon cancer cells); experiment: In vitro anti-tumor cell proliferation activity (MTT method), HCT116; type: cell-based; conditions: read-out: IC50 values of in vitro anti-cell proliferation activity
Method: as §2, §3, §4

[5] = tested on: U2Os (human osteosarcoma cells); experiment: In vitro anti-tumor cell proliferation activity (MTT method), U2Os; type: cell-based; conditions: 48 h, read-out: IC50 values of in vitro anti-cell proliferation activity
Method: as §2, §3, §4

[6] = tested on: MCF-7 (human breast cancer cells); experiment: In vitro anti-tumor cell proliferation activity (MTT method), MCF-7; type: cell-based; conditions: read-out: IC50 values of in vitro anti-cell proliferation activity
Method: as §2, §3, §4

mouse S180 sarcoma model = experiment: Inhibition of tumor growth in vivo (mouse S180 sarcoma model); design: species or system male ICR mice; conditions: for Average tumor weight: Mean ± SD, n 10
Method: The mice used in the experiment were male ICR mice of SPF grade, weighing 20 g±2 g, purchased from Beijing Vital River Laboratory Animal Technology Co., Ltd., and raised in an animal barrier of the Experimental Animal Department of Capital Medical University.
(§1) The specific method included: drugs were administered to tumor-forming mice by group for 7 consecutive days, a length of the tumor was measured every other day to calculate a tumor volume. 24 h after the last administration, the mice were weighed, anesthetized with diethyl ether, and eyeballs were removed to collect blood; the obtained whole blood was centrifuged at 1,000 rpm for 10 min, and a serum was absorbed for later use. The mice were sacrificed by neck dislocation, and the tumor mass and various organs were stripped and weighed (it was ensured that the operation was done as soon as possible and the stripping was complete and clean). The tumor inhibition rate was calculated by formula b, the results were shown in Table 2 and FIG. 2; and by calculating a viscera-weight ratio of each organ, and it was analyzed whether the test compound had obvious physiological effects on the mouse organs.

[7] = Viscera-weight ratio / toxicity in tumor-bearing mice; type: in vivo, male ICR mice; conditions: FIG. 5
Method: as §1
After a preliminary study on the in vivo anti-tumor growth activity of different amino acid main compounds, ZD-A, ZD-B, ZD-E-1, and ZD-E-1 with an increased side-chain methylene unit (ZD-F-1) were selected; three dosages of 10 μmol/kg, 5 μmol/kg, and 2 μmol/kg were set to evaluate the inhibitory ability of the four compounds on tumor growth in mice. […] Afterwards, the tumor growth trend and the viscera-weight ratio of the two compounds on mice were analyzed to compare the anti-tumor growth ability and toxicity of the two compounds. The results were shown in FIG. 4 and FIG. 5: after one-way analysis of variance, * meant that compared with the Vehicle group, there was a difference, P<0.05; ** represented a significant difference compared with the Vehicle group, P<0.01.

Water solubility = type: physicochemical; conditions: decides the injection route
[8] = Table 2, 10 μmol/kg, ip, 7 consecutive days
[9] = Table 2, 2 μmol/kg, ip, 7 consecutive days

IC50 ([1]; S180, 48 h, Mean ± SD): 23.7 ± 2.29 µM
IC50 ([2]; LLC, Mean ± SD): > 100 µM
IC50 ([3]; A549, 48 h, Mean ± SD): > 100 µM
IC50 ([4]; HCT116, 48 h, Mean ± SD): 38.9 ± 2.05 µM
IC50 ([5]; U2Os, Mean ± SD): 45.7 ± 1.68 µM
IC50 ([6]; MCF-7, 48 h, Mean ± SD): 68.7 ± 1.5 µM
SMILES: N=C(CCl)NCCCC[C@H](Nc1ccc([N+](=O)[O-])c2nonc12)C(=O)NCc1ccccc1 [ZD-F-1, NBD-Lys(C1)-NBzl]
Tumor growth trend in mice (mouse S180 sarcoma model; FIG. 4, ZD-E-1 versus ZD-F-1): roughly the same
Tumor Inhibition Rate (mouse S180 sarcoma model; Table 3, 2 μmol/kg, iv): 13.32%
Average tumor weight (mouse S180 sarcoma model; Table 3, 2 μmol/kg, iv): 1.487 ± 0.660 g
Tumor Inhibition Rate (mouse S180 sarcoma model; Table 3, 5 μmol/kg, iv): 30.54%
Average tumor weight (mouse S180 sarcoma model; Table 3, 5 μmol/kg, iv): 1.191 ± 0.407 g
Tumor Inhibition Rate (mouse S180 sarcoma model; Table 3, 10 μmol/kg, iv): 39.99%
Average tumor weight (mouse S180 sarcoma model; Table 3, 10 μmol/kg, iv): 1.029 ± 0.423 g
Effect on liver weight (viscera-weight ratio) compared with Vehicle group ([7]; ZD-E-1 at high dosages (10 μmol/kg and 5 μmol/kg)): no difference
Effect on brain weight (viscera-weight ratio) compared with Vehicle group ([7]; ZD-E-1 at three dosages): no difference
Water solubility (Water solubility): had no such concerns

SMILES: N=C(NCCC[C@H](Nc1ccc([N+](=O)[O-])c2nonc12)C(=O)OCc1ccccc1)N[N+](=O)[O-] [ZD-A, NBD-Arg(NO2)-OBzl]
IC50 ([1]; Mus musculus, S-180, 48 h): > 100 µM
IC50 ([2]; Mus musculus): > 100 µM
IC50 ([3]; Homo sapiens, A549, 48 h): > 100 µM
IC50 ([4]; Homo sapiens, HCT-116, 48 h): > 100 µM
IC50 ([5]; Homo sapiens, U2OS): > 100 µM
IC50 ([6]; Homo sapiens, MCF7, 48 h): > 100 µM
Average tumor weight compared with Vehicle group (one-way analysis of variance) (mouse S180 sarcoma model; 10 μmol/kg, ip): different from that of Vehicle group
Tumor Inhibition Rate (mouse S180 sarcoma model; [8]): 36.19%
Average tumor weight (mouse S180 sarcoma model; [8]): 1.140 ± 0.437 g
Tumor Inhibition Rate (mouse S180 sarcoma model; Table 3, 2 μmol/kg, ip): 23.36%
Average tumor weight (mouse S180 sarcoma model; Table 3, 2 μmol/kg, ip): 1.315 ± 0.338 g
Tumor Inhibition Rate (mouse S180 sarcoma model; Table 3, 5 μmol/kg, ip): 28.20%
Average tumor weight (mouse S180 sarcoma model; Table 3, 5 μmol/kg, ip): 1.232 ± 0.102 g
Tumor Inhibition Rate (mouse S180 sarcoma model; Table 3, 10 μmol/kg, ip): 29.78%
Average tumor weight (mouse S180 sarcoma model; Table 3, 10 μmol/kg, ip): 1.204 ± 0.438 g
Water solubility (Water solubility): poor water solubility

SMILES: NCCC[C@H](Nc1ccc([N+](=O)[O-])c2nonc12)C(=O)NCc1ccccc1 [ZD-E, (S)-5-amino-N-benzyl-2-((7-nitro-2,1,3-benzoxadiazol-4-yl)amino)pentaneamide]
IC50 ([1]; Mus musculus, S-180, 48 h): 66 ± 2.61 µM
IC50 ([2]; Mus musculus): > 100 µM
IC50 ([3]; Homo sapiens, A549, 48 h): > 100 µM
IC50 ([4]; Homo sapiens, HCT-116, 48 h): 49.7 ± 4.17 µM
IC50 ([5]; Homo sapiens, U2OS): 60.5 ± 0.969 µM
IC50 ([6]; Homo sapiens, MCF7, 48 h): 85.2 ± 6.1 µM
Tumor Inhibition Rate (mouse S180 sarcoma model; [8]): 25.82%
Average tumor weight (mouse S180 sarcoma model; [8]): 1.326 ± 0.685 g

SMILES: CN(C)c1ccc2cc(C(=O)NC(CCCNC(=N)CCl)C(=O)NCc3ccccc3)ccc2c1 (stereo not shown) [YW3-56, N-(1-(benzylamino)-5-(2-chlorooxalimide)-1-oxopentan-2-yl)-6-(dimethylamino)-2-naphthylamide, reference compound]
Tumor Inhibition Rate (mouse S180 sarcoma model; [8]): 44.39%
Average tumor weight (mouse S180 sarcoma model; [8]): 0.994 ± 0.310 g
Tumor Inhibition Rate (mouse S180 sarcoma model; Table 3, 10 μmol/kg, iv): 44.38%
Average tumor weight (mouse S180 sarcoma model; Table 3, 10 μmol/kg, iv): 0.954 ± 0.298 g

IC50 ([1]; Mus musculus, S-180, S180, 48 h, Mean ± SD): 0.49 ± 0.092 µM
IC50 ([2]; Mus musculus, LLC, Mean ± SD): 0.19 ± 0.095 µM
IC50 ([3]; Homo sapiens, A549, 48 h, Mean ± SD): 0.229 ± 0.052 µM
IC50 ([4]; Homo sapiens, HCT-116, HCT116, 48 h, Mean ± SD): 0.375 ± 0.108 µM
IC50 ([5]; Homo sapiens, U2Os, Mean ± SD): 1.2 ± 0.034 µM
IC50 ([6]; Homo sapiens, MCF7, MCF-7, 48 h, Mean ± SD): 1.03 ± 0.188 µM
SMILES: COc1cccc2c1C(=O)c1c(O)c3c(c(O)c1C2=O)C[C@@](O)(C(=O)CO)C[C@@H]3O[C@H]1C[C@H](N)[C@H](O)[C@H](C)O1 [DOX, doxorubicin, reference compound]
Tumor Inhibition Rate (mouse S180 sarcoma model; [9]): 51.80%
Average tumor weight (mouse S180 sarcoma model; [9]): 0.861 ± 0.462 g
